Reference: patent publication US20230174582A1, “VIPR2 ANTAGONIST PEPTIDE” (ICHIMARU PHARCOS CO., LTD, priority 2020, published 2023)
“Also recorded” adds a separate entry of the source. Starred links: 1 amine or outer side, 2 acyl side, 3 side chain; linkers in the order of their positions; H or OH if unused. Positions of bridges follow the written chain, without caps; N, C: chain ends. Non-standard residues stand in square brackets, D forms with d. Residues, ends and D or L forms follow the SMILES beside them. TBMB = c1c(C[*:1])cc(C[*:3])cc1C[*:2]; mXylylene = c1cc(C[*:1])cc(C[*:2])c1; NMeY = CN[C@@H](Cc1ccc(O)cc1)C(=O)O; Dap = NC[C@H](N)C(=O)O; Mpa = O=C(O)CCS; Sar = CNCC(=O)O

How the values were obtained:
[1] = Resistance to protease degradation in rat plasma (RP-HPLC peak); type: in vitro ADME; conditions: 37° C., 24 hours compared to 0 hours, FIG. 6
Experimental: To confirm that the peptides of the embodiments are resistant to protease degradation compared to VIpep-3, VIpep-3 or representative peptides of the embodiments (Seq-1, Seq-6, Seq-9, or Seq-10) were mixed in rat plasma, and after a certain incubation time, the residual amount of the peptide was evaluated by the presence or absence of peaks on RP-HPLC. To 1 μL of each 10 mM peptide, 20 μL of rat plasma was added, and incubated at 37° C. for an arbitrary time (0 or 24 hours). Then, for VIpep-3, 80% acetonitrile, for the other peptides, 200 μL each of acetonitrile was added, mixed well, placed on ice for 10 minutes, and centrifuged at 15,000 rpm at 4° C. for 10 minutes to remove plasma proteins.

VIPR2 [2] = molecular target: T1, VIPR2 (Homo sapiens, UniProt P41587); assay: Change in intracellular calcium concentration in VIPR2-expressing cells (Fluo-8), peptide co-added with VIP; type: cell-based; design: host or cells: purchased human VIPR2-expressing cell line; conditions: VIP 150 nM, peptide 750 nM co-added, FIG. 5
T1 sequence (P41587 24-438): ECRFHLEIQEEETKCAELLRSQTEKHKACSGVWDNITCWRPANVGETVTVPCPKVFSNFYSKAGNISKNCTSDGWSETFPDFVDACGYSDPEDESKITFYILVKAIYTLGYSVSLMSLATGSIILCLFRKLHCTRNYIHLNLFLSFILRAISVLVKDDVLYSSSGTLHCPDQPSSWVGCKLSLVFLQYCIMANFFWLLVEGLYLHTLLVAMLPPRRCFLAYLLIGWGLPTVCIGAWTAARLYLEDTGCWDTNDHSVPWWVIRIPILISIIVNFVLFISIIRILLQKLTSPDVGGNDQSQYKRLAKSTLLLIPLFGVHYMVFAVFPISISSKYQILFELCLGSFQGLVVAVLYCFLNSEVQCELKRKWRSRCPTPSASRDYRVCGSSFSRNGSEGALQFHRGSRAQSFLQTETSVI
Experimental: One of the downstream signals of VIPR2 is known to be changes in intracellular calcium concentration. Human VIPR2-expressing cell line (Catalog No. HTS079RTA, manufactured by Eurofins) was treated with Scree Quest™ Fluo-8 No Wash Calcium Assay Kit (Catalog No. 36315, AAT Bioquest) to introduce Fluo-8, an indicator reagent to measure changes in intracellular calcium concentration by fluorescence. The natural ligand VIP (150 nM final concentration) and VIpep-3 (final concentration 750 nM) or representative examples of the peptides of the embodiments (Seq-1, Seq 5-9) (final concentration 750 nM) were co-added and changes in fluorescence intensity were observed over time using fluorescence microscopy. The difference between the fluorescence intensity before the addition of VIP and the strongest fluorescence intensity after the addition of VIP was taken as 100% and compared to the difference in fluorescence intensity when VIpep-3 or the inventive peptide was co-added.

VIPR2 [3] = molecular target: T2, VIPR2 (Mus musculus, UniProt P41588); assay: VIPR2 antagonist activity in vivo: CREB phosphorylation in prefrontal cortex (Western blotting); conditions: ICR mice 12 days old, male, s.c., Ro25-1553 0.4 nmol/g with peptide 1 or 10 nmol/g, 1 hour, FIG. 8
T2 construct: from tissue; host or cells: prefrontal cortex of ICR mice, 12 days old, male
T2 sequence (P41588 23-437): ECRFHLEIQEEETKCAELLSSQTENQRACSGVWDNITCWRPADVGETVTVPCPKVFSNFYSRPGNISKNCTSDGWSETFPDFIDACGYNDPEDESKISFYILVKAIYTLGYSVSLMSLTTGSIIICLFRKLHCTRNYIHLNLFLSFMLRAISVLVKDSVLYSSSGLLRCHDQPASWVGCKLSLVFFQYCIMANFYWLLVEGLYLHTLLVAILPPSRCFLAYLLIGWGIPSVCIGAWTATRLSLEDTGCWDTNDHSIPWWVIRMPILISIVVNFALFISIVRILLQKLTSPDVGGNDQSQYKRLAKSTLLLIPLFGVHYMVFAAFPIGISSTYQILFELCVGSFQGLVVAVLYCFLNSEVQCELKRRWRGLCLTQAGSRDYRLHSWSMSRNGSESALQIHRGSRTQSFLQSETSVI
Experimental: Ro25-1553 (Peptide Institute, Inc.) which is an analog of VIP and a selective agonist for VIPR2, was dissolved in PBS (0.4 nmol/g body weight), and then mixed at 9:1 with the representative example of the inventive peptide (Seq-10) dissolved in DMSO (1 nmol/g body weight or 10 nmol/g body weight) or DMSO (vehicle group) (at a final concentration of DMSO is 10%). These solutions were administered subcutaneously to ICR mice (12 days old, male). 1 hour later, brains were removed, prefrontal cortex was dissected, and the phosphorylation of intracellular cyclic AMP response sequence-binding protein (CREB) (one of the downstream signals of VIPR2) in the cells was evaluated by Western blotting. The antibodies used for Western blotting were anti-phosphorylated CREB antibody (#9198) and anti-CREB antibody (#9197) purchased from Cell Signaling Technology.

ICR mice = assay: Novel object recognition test; type: in vivo; conditions: Ro25-1553 0.07 nmol/g mixed with peptide 1 nmol/g, FIG. 9B
Experimental: We evaluated whether the peptide could improve the recognition function to novel objects, which is reduced by the activation of VIPR2. Ro25-1553 (Peptide Institute, Inc.) an analog of VIP and a selective agonist for VIPR2, was dissolved in PBS (0.07 nmol/g body weight), and then mixed at 99:1 with a representative example of the inventive peptide (Seq-10) dissolved in DMSO (1 nmol/g body weight) or DMSO (Vehicle group) (1% final concentration of DMSO). These solutions were administered subcutaneously once daily to male ICR mice on postnatal day 1 for 14 days, the mice were continuously bred and subjected to a novel object recognition test at 8 weeks of age. The novel object recognition test was conducted during the light period (8:00-20:00) according to Non-Patent Literature 12. First, test cages (30 cm×30 cm×35 cm) made of acrylic-modified polyvinyl chloride were placed in a soundproofed laboratory at an illumination level of 30 lux and covered only with wooden sterilized soft chips (Sankyo Lab Service Co.). […] The animals' behavior during the training and test trials was video-recorded, and the search time for each of the two objects was measured. The discrimination index was calculated as the ratio (%) of the search time difference between object c and object a to the total search time in the test trial.

VIPR2 [4] = molecular target: T1, VIPR2; assay: Selective antagonist activity: intracellular calcium change (FLIPR Tetra) in VIPR1-, VIPR2- or PAC1-expressing cells; type: cell-based; design: host or cells: VIPR2-expressing cells
Experimental: A representative example of any concentration of the inventive peptide (Seq-10) was added to cells expressing VIPR1-expressing cells, VIPR2-expressing cells, or PAC1-expressing cells all of which have been transfected with intracellular calcium concentration indicator and incubated for 30 minutes. Then, VIPR1 cells and VIPR 2 cells were treated with VIP (25 nM and 150 nM, respectively), and PAC1 cells were treated with PACAP (35 nM). The change in intracellular calcium concentration for 2 minutes immediately after the addition thereof was measured by FLIPR Tetra. The inhibition rate of the antagonist peptides was calculated, assuming that the change in intracellular calcium concentration when only the ligand for VIP or PACAP was added was defined as 0% inhibition, and the change in intracellular calcium concentration when both the antagonist peptide and the ligand were not added was defined as 100%.

[5] = molecular target: T3, extracellular domain of human VIPR2 (Homo sapiens, UniProt P41587); conditions: recombinant protein, Non-Patent Literature 8; cited from earlier work
T3 sequence (P41587 24-124 limits assumed): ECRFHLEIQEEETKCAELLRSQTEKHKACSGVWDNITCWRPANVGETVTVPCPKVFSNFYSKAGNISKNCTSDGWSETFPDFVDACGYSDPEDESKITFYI

VIPR2 [6] = molecular target: T1, VIPR2; design: host or cells: VIPR2-expressing cells; conditions: cellular studies, Non-Patent Literature 8; cited from earlier work

| phosphorylation of CREB in prefrontal cortex (VIPR2 [3]) | antagonist activity against VIPR2-expressing cells (VIPR2 [4]; summary statement, Seq-10 tested with VIP 150 nM, FLIPR Tetra) | Molecule | resistance to protease degradation: peptide-derived RP-HPLC peak after incubation in rat plasma [1] | inhibition of the receptor-activating activity of VIP on VIPR2 (antagonist activity, intracellular calcium) (VIPR2 [2]) | recognition of novel objects versus Ro25-1553 alone (discrimination index) (ICR mice; s.c. once daily 14 days from postnatal day 1, test at 8 weeks, p less than 0.001 (Student's t-test)) | recognition function compared with normal mice (ICR mice; s.c. once daily 14 days, test at 8 weeks) | antagonist activity against VIP-VIPR2 interaction versus VIP-VIPR1 or PACAP-PAC1 interactions (selectivity) (VIPR2 [4]; peptide preincubated 30 minutes, VIP 25 nM (VIPR1), VIP 150 nM (VIPR2), PACAP 35 nM (PAC1), FIG. 7) | binding to VIPR2 extracellular region/domain [5] | inhibition of VIP and PACAP signaling pathway through VIPR2 (VIPR2 [6]) |
| --- | --- | --- | --- | --- | --- | --- | --- | --- | --- |
|  |  | CC[C@H](C)[C@H](NC(=O)[C@H](CC(C)C)NC(=O)[C@@H]1CC(=O)NCCCC[C@@H]2NC(=O)[C@@H]3CCCN3C(=O)[C@H](CC(C)C)NC(=O)[C@H](Cc3ccc(O)cc3)N(C)C(=O)CCSCc3cccc(c3)CSC[C@H](NC(=O)[C@H](CC(C)C)NC(=O)[C@H](Cc3ccc(O)cc3)NC2=O)C(=O)N1)C(N)=O [Seq-6, c(Mpa-NmeTyr-Leu-Pro-c[Lys-Tyr-Leu-Cys)-Asp]-Leu-Ile-NH2] ([Mpa][NMeY]LPKYLCDLI-NH2; linker 1-8 via mXylylene; lactam 5-9) | resistance to protease degradation; also recorded: remained almost the same | antagonist activity |  |  |  |  |  |
| clearly inhibited | antagonist activity | CC[C@H](C)[C@H](NC(=O)[C@H](CC(C)C)NC(=O)[C@@H]1CC(=O)NCCCC[C@@H]2NC(=O)[C@@H]3CCCN3C(=O)[C@H](CC(C)C)NC(=O)[C@H](Cc3ccc(O)cc3)NC(=O)[C@@H]3CCCN3C(=O)[C@@H]3CCCN3C(=O)[C@@H](NC(C)=O)CSSC[C@H](NC(=O)[C@H](CC(C)C)NC(=O)[C@H](Cc3ccc(O)cc3)NC2=O)C(=O)N1)C(N)=O [Seq-10, Ac-c(Cys-Pro-Pro-Tyr-Leu-Pro-c[Lys-Tyr-Leu-Cys)-Asp]-Leu-Ile-NH2] (Ac-CPPYLPKYLCDLI-NH2; disulfide 1-10; lactam 7-11) | resistance to protease degradation; also recorded: remained almost the same |  | significant improvement | almost the same as that of normal mice | significantly strong against VIP-VIPR2 interaction than those against VIP-VIPR1 or PACAP-PAC1 interactions |  |  |
|  |  | CC(=O)N[C@H]1CSSC[C@@H](C(=O)N[C@H](C(=O)N[C@@H](CC(C)C)C(=O)N[C@@H](CC(C)C)C(=O)N[C@@H](CC(C)C)C(=O)N[C@@H](CCCNC(=N)N)C(=O)N[C@@H](CO)C(=O)O)[C@@H](C)O)NC(=O)[C@H](CC(C)C)NC(=O)[C@H](CCCNC(=N)N)NC(=O)[C@H](CCCNC(=N)N)NC(=O)[C@@H]2CCCN2C(=O)[C@H](CC(C)C)NC(=O)[C@H](Cc2ccc(O)cc2)NC(=O)[C@@H]2CCCN2C(=O)[C@@H]2CCCN2C1=O [VIpep-3, Ac-c(Cys-Pro-Pro-Tyr-Leu-Pro-Arg-Arg-Leu-Cys)-Thr-Leu-Leu-Leu-Arg-Ser-OH] (Ac-CPPYLPRRLCTLLLRS-OH; disulfide 1-10) | greatly reduced | inhibit the receptor-activating activity of VIP on VIPR2 |  |  |  | tightly binds | inhibits |
|  |  | c(Mpa-NmeTyr-Leu-NmeGly-c(Cys)-Tyr-Leu-Cys)-Dap-Leu-Ile-NH2 ([Mpa][NMeY]L[Sar]CYLC[Dap]LI-NH2; linker (positions not given here) via TBMB; not fully specified (bridges)) [Seq-9, cyclization TBMB(1-5-8)] | resistance to protease degradation; also recorded: remained almost the same | antagonist activity |  |  |  |  |  |
|  |  | c(Mpa-Pro-Pro-Tyr-Leu-Pro-c[Lys-Tyr-Leu-Cys)-Asp]-Leu-Ile-NH2 ([Mpa]PPYLPKYLCDLI-NH2; disulfide (positions not given here); lactam 7-11; not fully specified (bridges)) [Seq-1, cyclization S-S(1-10)/amide(7-11)] | resistance to protease degradation; also recorded: remained almost the same | antagonist activity; also recorded: inhibit the receptor-activating activity of VIP on VIPR2 |  |  |  |  |  |
